ChEMBL document CHEMBL3430912, “GSK Tres Cantos Anti-Kinetoplastid Screening (TCAKS) Data”

Tests used:
[1] = biological target: Sterol 14-alpha demethylase (Trypanosoma cruzi (strain CL Brener), UniProt Q7Z1V1); assay: GSK_TCAKS: pIC50 CYP51 from Trypanosoma cruzi.; type: functional
[2] = system: Trypanosoma brucei brucei; assay: GSK_TCAKS: pIC50 Trypanosoma brucei viability assay using luminiscence. Assay plates (1536-well) were prepared. T. brucei cultures were harvested and counted in a CASY cell counter. A parasite suspension was prepared at a final concentration of 5 * 10^4 cells/mL in complete HMI9 medium and 6uL was dispensed to all wells containing compounds using a Multidrop Combi dispenser. 6uL of HMI9 media with 0.4% DMSO were dispensed to control columns. Plates were incubated for 24 h at 37C, 5% CO2 then tempered for 10 min at room temperature. ATP content was quantified by adding 4 uL of CellTiter-Glo Reagent (Promega) according to the manufacturer's instructions. Luminescence was measured using a ViewLux.; type: functional, organism-based; details: Lister 427, CASY
[3] = system: Trypanosoma brucei brucei; assay: GSK_TCAKS: pIC50 Trypanosoma brucei viability assay using fluorescence intensity. Assay plates (1536-well) were prepared by dispensing 25nL of compound solution per well using an Echo acoustic dispenser (Labcyte).; type: functional, organism-based; details: Lister 427, 2 h
Trypanosoma cruzi [4] = assay: GSK_TCAKS: pIC50 Trypanosoma cruzi viability assay using beta-GAL activity. This assay was run at single shot at 5uM compound concentration per well. The biological reagents consisted of NIH-3T3 host cells and trypomastigotes parasitic cells; both cell types were set to a 3.3 * 10^5 cells/mL dilution in assay DMEM by means of a CASY cell counter device using a 60um capillary. 6 uL of the mixture were dispensed per well (about 1 * 10^3 host-cells and 1 * 10^3 parasites) with a Multidrop Combi dispenser. […] In all wells, the percentage of DMSO never exceeded 0.5%. Plates incubated for four days at 37C, 5% CO2. The substrate used for the assay fluorescence intensity (FLINT) readout was resorufin-beta-D-galactopiranoside (Sigma-Aldrich) at 5uM per well. It was diluted in PBS supplemented with the soft detergent Igepal (Fluka).; type: functional, organism-based, Mus musculus; details: Tulahuen, NIH3T3
Leishmania donovani [5] = assay: (§1) GSK_TCAKS: pIC50 Leishmania donovani Imaging: Amastigotes/Macrophages. Assay plates (384-well) were prepared by adding 250nL of compound to each well. For single shot assay, the final compound concentration was 5 uM. […] Automated image analysis was performed with a script developed on Acapella High Content Imaging and Analysis Software (PerkinElmer). Output: Average number of amastigotes per macrophage cell were reported for each well.; type: functional, organism-based, Homo sapiens; details: THP-1
Leishmania donovani [6] = assay: as §1, with “Infected Macrophages.” for “Amastigotes/Macrophages.”, “Percent” for “Average number”, “infected” for “amastigotes per”, “cells” for “cell”; type: functional, organism-based, Homo sapiens; details: THP-1
Trypanosoma cruzi [7] = assay: GSK_TCAKS: pIC50 Trypanosoma cruzi Imaging: Amastigotes/Cell. […] Cells were then washed once with PBS before infection. T. cruzi trypomastigotes, collected at days 5 to 8 after infection from LLC-MK2 parasite infected cultures, were allowed to swim out for 4h at 37C from a centrifuged pellet (2,500 rpm/10 min/room temperature). Trypomastigotes were then collected and counted in a CASY Cell Counter. Trypomastigotes, in supplemented DMEM, were added to H9c2 cultures in a multiplicity of infection of 1 and incubated for 18 h. Cells were washed once with PBS before incubation of the infected H9c2 monolayer with trypsin (Life-Technologies) to detach cells from the flask. Cells were counted in a CASY Cell Counter using a 150 um capillary and their density set at 5 * 10^4 cells per mL in supplemented assay DMEM. Infected H9c2 were dispensed into 384-well poly-lysine coated assay plates at 50uL per well using a Multidrop Combi dispenser. After seeding them, the plates were incubated at 37C, 5% CO2 for 72h. Cultures were then fixed and stained by addition of 50 uL of a solution containing 8% formaldehyde and 4 uM DRAQ5 DNA dye (BioStatus, UK) per well. […] Five images were collected per well for reliable statistical analysis. Automated image analysis was performed with a script developed on Acapella High Content Imaging and Analysis Software (PerkinElmer). Output: number of amastigotes per cell as infection level measurement.; type: functional, organism-based, Rattus norvegicus; details: H9c2, 4 h
Trypanosoma cruzi [8] = assay: (§2) GSK_TCAKS: pIC50 Trypanosoma cruzi Imaging: Infected Cells. […] Cells were then washed once with PBS before infection. T. cruzi trypomastigotes, collected at days 5 to 8 after infection from LLC-MK2 parasite infected cultures, were allowed to swim out for 4h at 37C from a centrifuged pellet (2,500 rpm/10 min/room temperature). Trypomastigotes were then collected and counted in a CASY Cell Counter. Trypomastigotes, in supplemented DMEM, were added to H9c2 cultures in a multiplicity of infection of 1 and incubated for 18 h. Cells were washed once with PBS before incubation of the infected H9c2 monolayer with trypsin (Life-Technologies) to detach cells from the flask. Cells were counted in a CASY Cell Counter using a 150 um capillary and their density set at 5 * 10^4 cells per mL in supplemented assay DMEM. Infected H9c2 were dispensed into 384-well poly-lysine coated assay plates at 50uL per well using a Multidrop Combi dispenser. After seeding them, the plates were incubated at 37C, 5% CO2 for 72h. Cultures were then fixed and stained by addition of 50 uL of a solution containing 8% formaldehyde and 4 uM DRAQ5 DNA dye (BioStatus, UK) per well. […] Five images were collected per well for reliable statistical analysis. Automated image analysis was performed with a script developed on Acapella High Content Imaging and Analysis Software (PerkinElmer). Output: percentage of infected cells per well as a second infection marker.; type: functional, organism-based, Rattus norvegicus; details: H9c2, 4 h
Leishmania donovani [9] = assay: GSK_TCAKS: pIC50 Leishmania donovani viability assay using fluorescence intensity. Assay plates (1536-well) were prepared by adding 30nL per well of compound. For single shot assay, the final compound concentration was 5uM. […] Briefly, eGFP LdBOB axenic amastigotes were harvested, fixed and counted in a CASY cell counter (Roche-Applied Science). A final concentration of 1.5 * 10^5 cells per well were prepared in amastigote media containing 500 U/mL penicillin/streptomycin (Invitrogen) and 6uL was dispensed to each experimental well using a Multidrop Combi dispenser (Thermo Scientific). 6uL of assay media was dispensed to control columns used as reference for 100% compound response. Following incubation for 72 h at 37C, 5% CO2, 2 uL of resazurin was added to each well at a final concentration of 0.5 mM in phosphate buffered saline (PBS) with IGEPAL (Sigma-Aldrich), 0.05% (v/v).; type: functional, organism-based
[10] = GSK_TCAKS: pIC50 HepG2 human cell line viability assay using luminiscence. […] Seeding density was checked to ensure that new mono-layers were not more than 50% confluent at the time of harvesting. Cell suspension was added to 500 mL of the same medium at a final density of 1.2 * 10^5 cells/mL. This cell suspension was dispensed (25 uL, 3000 cells per well) into 384-well clear-bottom plates using a Multidrop Combi dispenser. Prior to addition of the cell suspension, the screening compounds (250 nL) were pre-dispensed into the plates with an Echo liquid handler. Plates were incubated for 48 h at 37C, 5% CO2. After incubation, plates equilibrated at room temperature for 30 min before proceeding to develop the luminescent signal. The signal developer, CellTiter-Glo Reagent, was allowed to equilibrate at room temperature for 30 min and added to the plates (25uL per well) using a Multidrop Combi dispenser. Plates were left for 10 min at room temperature for stabilization and then read using a ViewLux.; type: toxicity, cell-based
Trypanosoma cruzi [11] = assay: as §2, with “H2C9” for “Trypanosoma cruzi”, “H9c2 Host Cardiomyocytes.” for “Infected Cells.”, “Number” for “percentage”, “H9c2 Host Cardiomyocytes nuclei to determine drug-related cytotoxicity.” for “infected cells per well as a second infection marker.”; type: functional, organism-based, Rattus norvegicus; details: H9c2, 4 h
Leishmania donovani [12] = assay: as §1, with “THP-1 Host Macrophages.” for “Amastigotes/Macrophages.”, “THP-1” for “Average number of amastigotes per macrophage”, “cell count” for “cell”; type: functional, organism-based, Homo sapiens

Chain of Sterol 14-alpha demethylase (Q7Z1V1 whole entry): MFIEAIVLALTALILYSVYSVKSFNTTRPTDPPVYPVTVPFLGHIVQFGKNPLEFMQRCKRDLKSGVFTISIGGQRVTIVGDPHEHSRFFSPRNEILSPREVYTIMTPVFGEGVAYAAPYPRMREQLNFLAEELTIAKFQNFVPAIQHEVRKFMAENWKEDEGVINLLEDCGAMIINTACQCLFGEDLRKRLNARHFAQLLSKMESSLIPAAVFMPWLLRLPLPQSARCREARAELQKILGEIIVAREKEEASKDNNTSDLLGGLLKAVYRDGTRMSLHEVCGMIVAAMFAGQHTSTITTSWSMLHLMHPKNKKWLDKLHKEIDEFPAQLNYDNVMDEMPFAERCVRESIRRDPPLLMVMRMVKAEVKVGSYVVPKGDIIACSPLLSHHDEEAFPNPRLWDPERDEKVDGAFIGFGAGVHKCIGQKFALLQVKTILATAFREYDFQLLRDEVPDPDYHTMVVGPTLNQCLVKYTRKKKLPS

Row | SMILES | IC50 [1] [µM] | IC50 [2] [µM] | IC50 [3] [µM] | IC50 (Trypanosoma cruzi [4]) [µM] | IC50 (Leishmania donovani [5]) [µM] | IC50 (Leishmania donovani [6]) [µM] | IC50 (Trypanosoma cruzi [7]) [µM] | IC50 (Trypanosoma cruzi [8]) [µM] | IC50 (Leishmania donovani [9]) [µM] | IC50 at 48 h [10] [µM] | IC50 (Trypanosoma cruzi [11]) [µM] | IC50 (Leishmania donovani [12]) [µM]
1 | c1ccc(-c2nc(NCc3ccco3)c3ccccc3n2)nc1 | > 100 | 6.31 | > 39.8 | 6.31 | 2.51 | 2.51 | 3.98 | 3.16 | 3.16 | > 100 | 2 | 31.6
2 | O=C(NCCc1csc(-c2cccc(F)c2)n1)c1ccco1 | > 100 | 0.631 | 0.501 | 1.58 | > 50.1 | > 50.1 | 1.26 | 1.58 | > 50.1 | > 100 | 10 | > 50.1
3 | O=C(Nc1ccccc1)Nc1nc(-c2ccccn2)cs1 | 31.6 | 1 | 1 | 0.631 | 0.251 | 0.398 | 0.631 | 1 | 1.58 | 25.1 | 1 | 6.31
4 | CN(C)c1ccc(N)cc1CN(CC1CCCO1)S(C)(=O)=O (centres undefined) | > 100 | > 39.8 | > 39.8 | > 50.1 | 10 | 12.6 | > 50.1 | > 50.1 | 3.98 | > 100 | > 50.1 | > 50.1
5 | COc1ccc(C2CC(c3ccccc3Cl)=NN2C(=O)CNC(=O)C2CCCC2)cc1 (centres undefined) | 63.1 | 0.794 | 0.631 | 3.55 | > 50.1 | > 50.1 | 2 | 3.16 | > 50.1 | > 100 | > 50.1 | > 50.1
6 | Cc1nc2c(-c3cccs3)c(C)nn2c(NCCO)c1C | > 100 | 0.2 | 0.126 | 39.8 | > 50.1 | > 50.1 | 15.8 | 31.6 | > 50.1 | > 100 | > 50.1 | > 50.1
7 | O=C(Nc1ccc(C(F)(F)F)cc1)NC1(C(=O)NCc2ccco2)CCCCC1 | > 31.6 | 1 | 0.794 | 7.94 | > 50.1 | > 50.1 | > 50.1 | > 50.1 | 39.8 | > 100 | > 50.1 | 31.6
8 | CCN(CC)c1nc(Nc2ccncc2)nc2ccccc12 | > 100 | 5.01 | 2.51 | 0.126 | 2 | 6.31 | 0.00501 | 0.0794 | 0.794 | 50.1 | 7.94 | 25.1
9 | COc1ccc(C2CC(c3ccc(NS(C)(=O)=O)cc3)=NN2C(=O)c2cccs2)cc1OC (centres undefined) | 12.6 | 25.1 | 15.8 | 25.1 | 3.98 | 5.01 | 15.8 | 31.6 | 12.6 | > 100 | > 50.1 | > 50.1
10 | COc1ccccc1C1CC(c2ccc(NS(C)(=O)=O)cc2)=NN1C(=O)c1cccs1 (centres undefined) | 25.1 | 20 | 15.8 | 25.1 | 2.51 | 3.98 | > 50.1 | > 50.1 | 3.98 | > 100 | > 50.1 | > 50.1
11 | CCS(=O)(=O)Nc1ccc(C2=NN(C(=O)c3cccs3)C(c3ccccc3OC)C2)cc1 (centres undefined) | 25.1 | 15.8 | 5.01 | 7.94 | 7.94 | 7.94 | > 50.1 | > 50.1 | 1.26 | > 100 | > 50.1 | > 50.1
12 | CCOc1ccc(CN(C)Cc2nc(Nc3ccc(C)cc3)[nH]c(=N)n2)cc1 | 15.8 | 2 | 2.51 | 6.31 | 3.16 | 3.98 | 5.01 | 5.01 | 31.6 | 31.6 | 3.16 | 39.8
13 | CCC(CC)C(=O)Nc1cccc(C(=O)Nc2nnc(C3CCCCC3)s2)c1 | > 100 | 0.631 | 0.251 | 10 | > 50.1 | > 50.1 | 15.8 | 25.1 | > 50.1 | > 100 | > 50.1 | > 50.1
14 | CCN(CC)c1nc(N(C)C)nc2c1CN(Cc1ccccc1)CC2 | 10 | 20 | 20 | 6.31 | 3.98 | 6.31 | 3.98 | 20 | 7.94 | 63.1 | > 50.1 | 39.8
15 | Cc1[nH]nc(C(F)(F)F)c1NC(=O)CCn1cc(Cl)c([N+](=O)[O-])n1 | > 100 | 0.794 | 0.501 | 7.94 | > 50.1 | > 50.1 | 6.31 | 25.1 | > 50.1 | > 100 | > 50.1 | 15.8
16 | O=c1ccc2ccc(F)c3c2n1C[C@H]3CN1CCN(CC(O)c2cc3c(cn2)OCS3)CC1 (some centres undefined) | > 100 | 0.398 | 0.2 | 0.708 | > 50.1 | > 50.1 | 0.316 | 0.631 | 20 | > 100 | > 50.1 | > 50.1
17 | COc1cc(Cl)c(C)cc1NC(=O)c1ccc([N+](=O)[O-])s1 | 15.8 | 10 | 0.501 | 0.631 | 5.01 | 6.31 | 0.501 | 0.631 | 7.94 | 31.6 | 2.51 | > 50.1
